Laboratory results as given in ChEMBL document CHEMBL1126257, “Fluoronaphthyridines and -quinolones as antibacterial agents. 5. Synthesis and antimicrobial activity of chiral 1-tert-butyl-6-fluoro-7-substituted-naphthyridones” (J Med Chem, 1992).
Converted amounts (≈) assume the structure as drawn.

System: Staphylococcus aureus
Assay: animal or person
Details: in Mus musculus, po, read-out: PD50
Description: In vivo potency on systemic infection caused by Staphylococcus aureus A9537 after oral administration to mice expressed as median protective dose.

SMILES	ED50 [mg/kg]
C[C@@H]1CN(c2nc3c(cc2F)c(=O)c(C(=O)O)cn3C(C)(C)C)C[C@H]1N	1.2

System: Serratia marcescens
Assay: In vitro antibacterial activity against Serratia marcescens A 20019.
Assay type: functional
Details: not given

SMILES	MIC [µg/mL]
C[C@@H]1C[C@@H](N)CN1c1nc2c(cc1F)c(=O)c(C(=O)O)cn2C(C)(C)C (stereo in doubt; 67)	2 (≈ 5.52 µM)

Same assay, conditions: Serratia marcescens; read-out: MIC

SMILES	MIC [µg/mL]
CN[C@@H]1CCN(c2nc3c(cc2F)c(=O)c(C(=O)O)cn3C(C)(C)C)C1	0.5 (≈ 1.38 µM)
CC(C)(C)n1cc(C(=O)O)c(=O)c2cc(F)c(N3CC[C@H](N)C3)nc21	0.13 (≈ 0.373 µM)
C[C@@H]1CN(c2nc3c(cc2F)c(=O)c(C(=O)O)cn3C(C)(C)C)C[C@H]1N	0.25 (≈ 0.69 µM)

System: Enterococcus faecalis
Assay: In vitro antibacterial activity against Enterococcus faecalis A9809.
Assay type: functional
Details: not given

SMILES	MIC [µg/mL]
C[C@@H]1C[C@@H](N)CN1c1nc2c(cc1F)c(=O)c(C(=O)O)cn2C(C)(C)C (stereo in doubt; 67)	1 (≈ 2.76 µM)

Same assay, conditions: Enterococcus faecalis; read-out: MIC

SMILES	MIC [µg/mL]
CN[C@@H]1CCN(c2nc3c(cc2F)c(=O)c(C(=O)O)cn3C(C)(C)C)C1	1 (≈ 2.76 µM)
CC(C)(C)n1cc(C(=O)O)c(=O)c2cc(F)c(N3CC[C@H](N)C3)nc21	0.03 (≈ 0.0861 µM)
C[C@@H]1CN(c2nc3c(cc2F)c(=O)c(C(=O)O)cn3C(C)(C)C)C[C@H]1N	0.06 (≈ 0.166 µM)

System: Klebsiella pneumoniae
Assay: In vivo potency on systemic infection caused by Klebsiella pneumoniae A 9664 after oral administration to mice expressed as median protective dose.
Assay type: functional
Details: read-out: PD50

SMILES	ED50 [mg/kg]
CC(C)(C)n1cc(C(=O)O)c(=O)c2cc(F)c(N3CC[C@H](N)C3)nc21	3.5

System: Escherichia coli
Assay: In vivo potency on systemic infection caused by Escherichia coli A 15119 after oral administration to mice expressed as median protective dose.
Assay type: functional
Details: read-out: PD50

SMILES	ED50 [mg/kg]
CC(C)(C)n1cc(C(=O)O)c(=O)c2cc(F)c(N3CC[C@H](N)C3)nc21	1.2

System: Klebsiella pneumoniae
Assay: In vitro antibacterial activity against Klebsiella pneumoniae A 9664.
Assay type: functional
Details: not given

SMILES	MIC [µg/mL]
C[C@@H]1C[C@@H](N)CN1c1nc2c(cc1F)c(=O)c(C(=O)O)cn2C(C)(C)C (stereo in doubt; 67)	0.5 (≈ 1.38 µM)

Same assay, conditions: Klebsiella pneumoniae; read-out: MIC

SMILES	MIC [µg/mL]
CN[C@@H]1CCN(c2nc3c(cc2F)c(=O)c(C(=O)O)cn3C(C)(C)C)C1	0.13 (≈ 0.359 µM)
CC(C)(C)n1cc(C(=O)O)c(=O)c2cc(F)c(N3CC[C@H](N)C3)nc21	0.03 (≈ 0.0861 µM)
C[C@@H]1CN(c2nc3c(cc2F)c(=O)c(C(=O)O)cn3C(C)(C)C)C[C@H]1N	0.03 (≈ 0.0828 µM)

System: Enterobacter cloacae
Assay: In vitro antibacterial activity against Enterobacter cloacae A 9656.
Assay type: functional
Details: not given

SMILES	MIC [µg/mL]
C[C@@H]1C[C@@H](N)CN1c1nc2c(cc1F)c(=O)c(C(=O)O)cn2C(C)(C)C (stereo in doubt; 67)	0.5 (≈ 1.38 µM)

Same assay, conditions: Enterobacter cloacae; read-out: MIC

SMILES	MIC [µg/mL]
CN[C@@H]1CCN(c2nc3c(cc2F)c(=O)c(C(=O)O)cn3C(C)(C)C)C1	0.13 (≈ 0.359 µM)
CC(C)(C)n1cc(C(=O)O)c(=O)c2cc(F)c(N3CC[C@H](N)C3)nc21	0.13 (≈ 0.373 µM)
C[C@@H]1CN(c2nc3c(cc2F)c(=O)c(C(=O)O)cn3C(C)(C)C)C[C@H]1N	0.016 (≈ 0.0441 µM)

System: Klebsiella pneumoniae
Assay: In vivo potency on systemic infection caused by after oral administration to mice expressed as median protective dose perorally
Assay type: functional
Details: read-out: PD50

SMILES	ED50 [mg/kg]
C[C@@H]1CN(c2nc3c(cc2F)c(=O)c(C(=O)O)cn3C(C)(C)C)C[C@H]1N	0.81

System: Enterococcus faecium
Assay: In vitro antibacterial activity against Enterococcus faecium A 24885.
Assay type: functional
Details: not given

SMILES	MIC [µg/mL]
C[C@@H]1C[C@@H](N)CN1c1nc2c(cc1F)c(=O)c(C(=O)O)cn2C(C)(C)C (stereo in doubt; 67)	8 (≈ 22.1 µM)

Same assay, conditions: Enterococcus faecium; read-out: MIC

SMILES	MIC [µg/mL]
CN[C@@H]1CCN(c2nc3c(cc2F)c(=O)c(C(=O)O)cn3C(C)(C)C)C1	8 (≈ 22.1 µM)
CC(C)(C)n1cc(C(=O)O)c(=O)c2cc(F)c(N3CC[C@H](N)C3)nc21	0.5 (≈ 1.44 µM)
C[C@@H]1CN(c2nc3c(cc2F)c(=O)c(C(=O)O)cn3C(C)(C)C)C[C@H]1N	0.5 (≈ 1.38 µM)

System: Staphylococcus aureus
Assay: In vitro antibacterial activity against Staphylococcus aureus A9537.
Assay type: functional
Details: not given

SMILES	MIC [µg/mL]
C[C@@H]1C[C@@H](N)CN1c1nc2c(cc1F)c(=O)c(C(=O)O)cn2C(C)(C)C (stereo in doubt; 67)	0.13 (≈ 0.359 µM)

Same assay, conditions: Staphylococcus aureus; read-out: MIC

SMILES	MIC [µg/mL]
CN[C@@H]1CCN(c2nc3c(cc2F)c(=O)c(C(=O)O)cn3C(C)(C)C)C1	0.03 (≈ 0.0828 µM)
CC(C)(C)n1cc(C(=O)O)c(=O)c2cc(F)c(N3CC[C@H](N)C3)nc21	0.0005 (≈ 0.00144 µM)
C[C@@H]1CN(c2nc3c(cc2F)c(=O)c(C(=O)O)cn3C(C)(C)C)C[C@H]1N	0.002 (≈ 0.00552 µM)

System: Morganella morganii
Assay: In vitro antibacterial activity against Morganella morganii A 15153.
Assay type: functional
Details: not given

SMILES	MIC [µg/mL]
C[C@@H]1C[C@@H](N)CN1c1nc2c(cc1F)c(=O)c(C(=O)O)cn2C(C)(C)C (stereo in doubt; 67)	4 (≈ 11 µM)

Same assay, conditions: Morganella morganii; read-out: MIC

SMILES	MIC [µg/mL]
CN[C@@H]1CCN(c2nc3c(cc2F)c(=O)c(C(=O)O)cn3C(C)(C)C)C1	0.5 (≈ 1.38 µM)
CC(C)(C)n1cc(C(=O)O)c(=O)c2cc(F)c(N3CC[C@H](N)C3)nc21	0.13 (≈ 0.373 µM)
C[C@@H]1CN(c2nc3c(cc2F)c(=O)c(C(=O)O)cn3C(C)(C)C)C[C@H]1N	0.25 (≈ 0.69 µM)

System: Pseudomonas aeruginosa
Assay: In vitro antibacterial activity against Pseudomonas aeruginosa A 9243.
Assay type: functional
Details: not given

SMILES	MIC [µg/mL]
C[C@@H]1C[C@@H](N)CN1c1nc2c(cc1F)c(=O)c(C(=O)O)cn2C(C)(C)C (stereo in doubt; 67)	16 (≈ 44.1 µM)

Same assay, conditions: Pseudomonas aeruginosa; read-out: MIC

SMILES	MIC [µg/mL]
CN[C@@H]1CCN(c2nc3c(cc2F)c(=O)c(C(=O)O)cn3C(C)(C)C)C1	1 (≈ 2.76 µM)
CC(C)(C)n1cc(C(=O)O)c(=O)c2cc(F)c(N3CC[C@H](N)C3)nc21	0.13 (≈ 0.373 µM)
C[C@@H]1CN(c2nc3c(cc2F)c(=O)c(C(=O)O)cn3C(C)(C)C)C[C@H]1N	0.5 (≈ 1.38 µM)

System: Escherichia coli
Assay: (§1) In vivo potency on systemic infection caused by after oral administration to mice expressed as median protective dose.
Assay type: functional
Details: read-out: PD50

SMILES	ED50 [mg/kg]
C[C@@H]1CN(c2nc3c(cc2F)c(=O)c(C(=O)O)cn3C(C)(C)C)C[C@H]1N	2.1

System: Pseudomonas aeruginosa
Assay: as §1
Assay type: functional
Details: read-out: PD50

SMILES	ED50 [mg/kg]
C[C@@H]1CN(c2nc3c(cc2F)c(=O)c(C(=O)O)cn3C(C)(C)C)C[C@H]1N	5.5

System: Escherichia coli
Assay: In vitro antibacterial activity against Escherichia coli A 15119.
Assay type: functional
Details: not given

SMILES	MIC [µg/mL]
C[C@@H]1C[C@@H](N)CN1c1nc2c(cc1F)c(=O)c(C(=O)O)cn2C(C)(C)C (stereo in doubt; 67)	0.25 (≈ 0.69 µM)

Same assay, conditions: Escherichia coli; read-out: MIC

SMILES	MIC [µg/mL]
CN[C@@H]1CCN(c2nc3c(cc2F)c(=O)c(C(=O)O)cn3C(C)(C)C)C1	0.06 (≈ 0.166 µM)
CC(C)(C)n1cc(C(=O)O)c(=O)c2cc(F)c(N3CC[C@H](N)C3)nc21	0.015 (≈ 0.0431 µM)
C[C@@H]1CN(c2nc3c(cc2F)c(=O)c(C(=O)O)cn3C(C)(C)C)C[C@H]1N	0.016 (≈ 0.0441 µM)
